Data taken from patent publication US20260347310A1, “PHENALKYLAMINES AND METHODS OF MAKING AND USING THE SAME” (GILGAMESH PHARMACEUTICALS, INC., priority 2022, published 2026).
Read-outs that look alike come from different tables or passages of the source.

What was measured:
[1] = Pharmacokinetics in plasma of rats after oral and intravenous dosing; oral bioavailability; format: in vivo, Sprague Dawley rats; details: rat plasma, racemate, 10% captisol
Method: The pharmacokinetics of disclosed compounds were determined in the plasma of rats after oral and intravenous dosing, with the results presented in Table 13.
Animals. Male Sprague Dawley rats were used in these studies. Animals were randomly assigned to treatment groups and were fasted overnight before oral dosing.
Drugs. The test compound was dissolved in 10% captisol (1) or 10% DMSO and 90% normal saline (2a) and administered intravenously (iv) at 2 mg/kg (1) or 1 mg/kg (2a) or orally (po) at 10 mg/kg (1) or 1 mg/kg (2a), calculated based on freebase, and at a volume of 10 mL/kg body weight for oral administration and 5 mL/kg for IV administration. The compounds were tested as the racemates.
Sample Collection and Bioanalysis. Blood samples were collected through the external jugular vein (via cannulation) at 0.083, 0.25, 0.5, 1, 2, 4, 8, and 24 h post-dose (total 8 time points/rat, 4 rats per administration route). At each time point, ~0.2 mL of blood was withdrawn and transferred into a pre-labeled 0.5-mL micro centrifuge tube containing 4 μL of 200 mM K2EDTA solution as anticoagulant and mixed gently by inverting the tube to facilitate mixing of anticoagulant with the blood. Blood samples were kept on ice until centrifugation. The collected blood samples were centrifuged at 4,000 rpm for 10 min at 4° C. Plasma samples were separated after centrifugation, transferred into pre-labeled tubes, and stored at −70° C. until bioanalysis. For bioanalysis, a 200-μL aliquot of internal standard prepared in acetonitrile (cetirizine, 50 ng/mL) was added (except for blank, where 200 μL of acetonitrile was added) to a 96-well Solvinert filter plate followed by 5 μL of a study plasma sample or spiked calibration standard. The filter plate was then centrifuged for 5 minutes at a speed of 2,500 rpm at 4° C. with a 96-well sample collection plate. Following centrifugation, collected samples were analyzed using a fit-for-purpose LC-MS/MS method, with authentic samples of the analyte used for calibration and identification.
Data Analysis. Pharmacokinetic parameters were estimated using the non-compartmental analysis tool of Phoenix® WinNonlin software (Ver 8.1). The drug concentrations of samples below the lower limit of quantitation (LLOQ) were designated as zero.

5-HT2A receptor [2] = molecular target: T1, 5-HT2A receptor (Homo sapiens, UniProt P28223); experiment: Radioligand binding at 5-HT2A ([3H]ketanserin); parameters: expressed in transfected cells
T1 sequence (P28223 whole entry): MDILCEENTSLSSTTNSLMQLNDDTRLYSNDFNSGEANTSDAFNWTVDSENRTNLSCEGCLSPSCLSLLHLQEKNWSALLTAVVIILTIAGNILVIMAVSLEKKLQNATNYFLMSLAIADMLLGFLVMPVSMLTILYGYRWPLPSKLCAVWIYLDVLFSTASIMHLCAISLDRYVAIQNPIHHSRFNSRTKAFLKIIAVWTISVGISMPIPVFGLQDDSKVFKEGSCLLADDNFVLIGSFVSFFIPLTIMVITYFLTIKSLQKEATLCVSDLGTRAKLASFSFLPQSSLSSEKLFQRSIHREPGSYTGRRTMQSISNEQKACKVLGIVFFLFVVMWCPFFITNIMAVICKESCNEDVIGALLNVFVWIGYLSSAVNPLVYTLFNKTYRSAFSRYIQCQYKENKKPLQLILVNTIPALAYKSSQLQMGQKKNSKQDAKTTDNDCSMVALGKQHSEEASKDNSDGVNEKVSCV
Method: The binding affinities of disclosed compounds at the ketanserin binding site of the 5-HT2A receptor, the LSD binding site of the 5-HT2B receptor, and the mesulergine binding site of the 5-HT2C receptor were determined in radioligand binding experiments.
Method. The affinity of the test compounds for 5-HT2A, 5-HT2B, and 5-HT2C receptors was determined in radioligand binding experiments with [^3H]ketanserin, [^3H]LSD, and [^3H]mesulergine, respectively, by WuXi AppTec (Hong Kong) Limited, using methods adapted from the literature and under conditions described in Table 7.

[3] = Metabolic stability in human liver microsomes (HLM); format: in vitro ADME; details: for stability in HLM (in words): 1 μM, 0.50 mg protein/mL, 1 mM NADPH, 37 °C, 60 min; for half-life at 1 µM / microsomal CLint at 1 µM: human liver microsomes 0.50 mg/mL, NADPH 1 mM, test compound 1 μM, 37° C., pH 7.4, 60 min
Method: (§1) Test Compounds. Compounds were prepared as described above.
(§2) HLM Stability. Pooled HLM from adult male and female donors (Corning 452117) were used. Microsomal incubations were carried out in multi-well plates. Liver microsomal incubation medium consisted of PBS (100 mM, pH 7.4), MgCl2 (1 mM), and NADPH (1 mM), with 0.50 mg of liver microsomal protein per mL. Control incubations were performed by replacing the NADPH-cofactor system with PBS. Test compounds (1 μM, final solvent concentration 1.0%) were incubated with microsomes at 37° C. with constant shaking. Six time points over 60 minutes were analyzed, with 60 μL aliquots of the reaction mixture being drawn at each time point. The reaction aliquots were stopped by adding 180 μL of cold (4° C.) acetonitrile containing 200 ng/mL tolbutamide and 200 ng/mL labetalol as internal standards (IS), followed by shaking for 10 minutes, and then protein sedimentation by centrifugation at 4,000 rpm for 20 minutes at 4° C. Supernatant samples (80 μL) were diluted with water (240 μL) and analyzed for parent compound remaining using a fit-for-purpose liquid chromatography-tandem mass spectrometry (LC-MS/MS) method.
(§3) Data Analysis. The elimination constant (kel), half-life (t1/2), and intrinsic clearance (CLint) were determined in a plot of […] versus time, using linear regression analysis.

[4] = Metabolic stability in dog liver microsomes (DLM); format: in vitro ADME, Beagle dogs; details: for stability in DLM (in words): 1 μM, 0.50 mg protein/mL, 1 mM NADPH, 37 °C, 60 min; for half-life at 1 µM / microsomal CLint at 1 µM: dog liver microsomes 0.50 mg/mL, NADPH 1 mM, test compound 1 μM, 37° C., pH 7.4, 60 min
Method: as §1
as §2, with “DLM” for “HLM”, “Beagle dogs (Xenotech D1000)” for “and female donors (Corning 452117)”
as §3

5-HT2A receptor [5] = molecular target: T1, 5-HT2A receptor; experiment: FLIPR Ca2+ flux functional agonist assay at 5-HT2A; format: cell-based; parameters: expressed in transfected cells; host or cells: HEK293
Method: Disclosed compounds were tested for agonist activity at several serotonin receptor subtypes (5-HT2A, […], and 5-HT2C) using Ca^2+ flux functional assays, with the results summarized in Table 9.
as §1
Functional Assays at 5-HT2A and 5-HT2B. Agonist activity at 5-HT2A and 5-HT2B receptors was determined using a FLIPR Ca^2+ flux assay at WuXi AppTec (Hong Kong) Limited according to their standard protocols. Briefly, stably transfected cells expressing the receptor of interest (HEK293 for both 5-HT2A and 5-HT2B) were grown and plated in a 384-well plate and incubated at 37° C. and 5% CO2 overnight. A solution of 250 mM probenecid in 1 mL FLIPR assay buffer was prepared fresh. This was combined with a fluorescent dye (Fluo-4 Direct™) to make a final assay concentration of 2.5 mM. Compounds were diluted 1:3.16 for 10 points and 750 nL was added to a 384 well compound plate using ECHO along with 30 μL assay buffer. The fluorescent dye was then added to the assay plate along with assay buffer to a final volume of 40 μL. The cell plate was incubated for 50 min at 37° C. and 5% CO2 and placed into the FLIPR Tetra along with the compound plate. 10 μL of references and compounds were then transferred from the compound plate into the cell plate and the fluorescent signal was read.

| SMILES | bioavailability ([1]; IV 2 mg/kg and PO 10 mg/kg, read-out: F (absolute oral bioavailability)) | C0 ([1]; IV 2 mg/kg) | AUC(0-t) ([1]; IV 2 mg/kg, read-out: AUC0-last (iv)) | half-life ([1]; IV 2 mg/kg, read-out: t1/2 (iv) (converted)) | Cmax ([1]; PO 10 mg/kg, fasted) | AUC(0-t) ([1]; PO 10 mg/kg, fasted, read-out: AUC0-last (po)) | half-life ([1]; PO 10 mg/kg, fasted, read-out: t1/2 (po) (converted)) | Ki (5-HT2A receptor [2]) | binding at 5-HT2A receptors (in words) (5-HT2A receptor [2]; [3H]ketanserin) | stability in HLM (in words) [3] | half-life at 1 µM [3] | microsomal CLint at 1 µM [3] | stability in DLM (in words) [4] | half-life at 1 µM [4] | microsomal CLint at 1 µM [4] | EC50 (5-HT2A receptor [5]) | agonist activity at 5-HT2A (in words) (5-HT2A receptor [5]; Ca2+ flux, potency or efficacy) | Emax (5-HT2A receptor [5]; HEK293, read-out: 5-HT2A % Act @ Max Dose) |
| --- | --- | --- | --- | --- | --- | --- | --- | --- | --- | --- | --- | --- | --- | --- | --- | --- | --- | --- |
| CCCCCCc1cc(OC)c(CC(N)CC)cc1OC (racemic) [Compound 1, 1-(4-hexyl-2,5-dimethoxyphenyl)butan-2-amine] | 8% | 389 ng/mL | 354 ng·h/mL | 2.16 h | 35.1 ng/mL | 138 ng·h/mL | 2.63 h | – | – | – | – | – | – | – | – | – | – | – |
| CCC(N)Cc1cc(OC)c(CCCCC(C)(F)F)cc1OC (stereo not drawn) [Compound 2b, 1-(4-(5,5-difluorohexyl)-2,5-dimethoxyphenyl)butan-2-amine] | – | – | – | – | – | – | – | 9.52 nM | potent ligands for 5-HT2A | significantly higher stability compared to 1R and 1S | > 2.42 h | < 9.6 µL/min/mg | significantly higher stability compared to 1R and 1S | 1.19 h | 19.4 µL/min/mg | 5060 nM | substantially less potent than 1R and 1S in the 5-HT2A FLIPR assay | 71.3% |
| [2H]C([2H])([2H])CCCCCc1cc(OC)c(CC(N)CC)cc1OC (stereo not drawn) [Compound 3a, 1-(4-(hexyl-6,6,6-d3)-2,5-dimethoxyphenyl)butan-2-amine] | – | – | – | – | – | – | – | – | – | intermediate stability | 0.517 h | 44.7 µL/min/mg | modestly greater stability than 1R or 1S | 0.557 h | 41.5 µL/min/mg | – | – | – |
